What was measured:
[1] = tested on: p38 MAPK/MAPKAPK2/TSC2/mTORC1/S6K1 cascade; experiment: Western blots of eNMDAR-triggered signaling; format: cell-based; details: 10 μM
From the text: This experiment was replicated 4 times with similar results and quantified in FIG. 20C.

[2] = Fung and Hardan 2015; cited from earlier work
Tsc2+/- mice [3] = experiment: Quantitative confocal immunohistochemistry of synaptophysin (SY38) in hippocampus; format: in vivo, mouse; details: i.p. loading 92 μmol/kg then 4.6 μmol/kg twice daily, two and a half days
From the text: To determine the effects of […] antagonists on the brain histology of Tsc2^+/- mice, quantitative confocal immunohistochemistry was used to analyze coronal brain slices from 3-month-old wild-type (WT) and Tsc2^+/- mice that had been treated for two and a half days with vehicle, memantine or NitroSynapsin. Tsc2+/- mice on the C57Bl/6J background received via the intraperitoneal route either vehicle or a loading dose of 92 μmol/kg of memantine or NitroSynapsin, followed by 4.6 μmol/kg of drug twice daily for two-and-a-half-days, with the last dose 3 hours prior to the behavioral training session (for a total of five drug injections). This dosing regimen yields an effective concentration of drug at NMDARs in the brain of 1-10 μM.

Tsc2+/- mice [4] = experiment: Fear conditioning test; format: in vivo, mouse; details: two-and-a-half-day treatment, last dose 3 hours before training
From the text: To determine the effects of eNMDAR antagonists on the brain histology of Tsc2^+/− mice, quantitative confocal immunohistochemistry was used to analyze coronal brain slices from 3-month-old wild-type (WT) and Tsc2^+/− mice that had been treated for two and a half days with vehicle, memantine or NitroSynapsin. Tsc2+/− mice on the C57Bl/6J background received via the intraperitoneal route either vehicle or a loading dose of 92 μmol/kg of memantine or NitroSynapsin, followed by 4.6 μmol/kg of drug twice daily for two-and-a-half-days, with the last dose 3 hours prior to the behavioral training session (for a total of five drug injections). This dosing regimen yields an effective concentration of drug at NMDARs in the brain of 1-10 μM.
Fear conditioning tests were performed on three-month-old Tsc2^+/+ and Tsc2^+/− mice to explore the effects of eNMDAR antagonists on anxiety, and learning and memory deficits in Tsc2^+/− mice. Vehicle, memantine or NitroSynapsin were administered for two and a half days, with the last dose of drug occurring 3-hours prior to the first training session. […] Freezing time of three-month-old WT and Tsc2^+/− transgenic mice treated with vehicle, memantine or NitroSynapsin in fear-conditioning trials. […] Values are mean+s.e.m. (n=7-12 mice per group). […]

Mef2c-het mice = experiment: Immunohistochemistry and stereological cell counting in hippocampus after chronic treatment; format: in vivo, mouse; details: optical dissector
From the text: Mef2c heterozygous knockout (Mef2c-het) mice were created by crossing mice carrying the conventional exon 2-deleted allele of Mef2c (Mef2c^Δ2) with their WT littermates. All procedures for maintaining and using these mice were approved by the Institutional Animal Care and Use Committee (IACUC) at the Sanford Burnham Prebys Medical Discovery Institute. In this study, only male mice were used for the behavioral assays to insure uniformity (either with or without drug treatment). Chronic treatment with memantine, NitroSynapsin (both at 4.6 μmol/kg body weight) or vehicle (PBS) was administered via i.p. injection, twice a day for at least 3 months, starting at ˜2.5 weeks of age. This age was chosen because mice are still juveniles and thus treatment could begin in human at an equivalent stage.
Mice were perfused with PBS buffer and then 2% paraformaldehyde in PBS (PFA).
After perfusion, brains were removed and placed into 2% PFA overnight for post-fixation and then sunk in 30% sucrose in PBS prior to freezing. Cryostat sections were cut at a thickness of 15 μm. Sections were soaked in Antigen Unmasking Solution (Vector) and microwaved for 30 s, followed by permeabilization with 0.25% Triton X-100 in PBS for 15 min. Primary antibodies were incubated for 16 h at 4° C. and fluorescence-conjugated secondary antibodies for 2 h at 25° C. Numerous unstained cells in each field served as an internal control for staining specificity. Primary antibodies included: NeuN (mouse, EMD Millipore), activated caspase-3 (rabbit, Cell Signaling), VGLUT1 (guinea pig, SYSY), VGLUT2 (rabbit, SYSY), VGAT (mouse, SYSY), synaptophysin (mouse, Sigma), GFAP (mouse, Sigma), PCNA (mouse, Santa Cruz), DCX (goat, Santa Cruz). TUNEL assay was performed to assess apoptosis using the Roche In Situ Cell Death Detection Kit per vender's instruction. The number of cells positive or percent area occupied by NeuN, activated caspase-3, TUNEL, GFAP, PCNA, or DCX was counted in specific brain regions using an optical dissector, or estimated by quantitative confocal immunohistochemistry or optical density, as described previously.

CC12CC3CC(C)(C1)CC(N)(C3)C2 [memantine, reference compound]
phosphorylation/activation of the p38 MAPK/MAPKAPK2/TSC2/mTORC1/S6K1 cascade on eNMDAR stimulation [1]: reduced this signaling | outcome in human clinical trials for ASD/IDD [2]: failed in human clinical trials | synaptophysin (SY38) staining in hippocampus (% area) (Tsc2+/- mice [3]): not statistically significant | context discrimination (freezing time, training vs novel context) (Tsc2+/- mice [4]): failed to mitigate this deficit | total number of NeuN+ cells in hippocampus (Mef2c-het mice): but not memantine (M), was significantly greater than in vehicle (V)-treated mice

Source: patent US11529319B2, “Methods and compositions for treating neurological conditions” (priority 2017, dated 2022)
